According to patent US8202910B2 (Sequella, Inc., priority 2006, dated 2012):
Where “and” joins values, the source holds several entries; their conditions need not be identical. Equal values may be shown once. Entries after “also recorded” stand apart in the source; their conditions may differ. Read-outs that look alike come from different tables or passages of the source.

What was measured:
[1] = test system: H37Rv strain of Mycobacterium tuberculosis; assay: microbe, parasite or virus in culture; assay type: cell-based
[2] = Maximum tolerated dose, one-time gavage dose in mice; assay type: in vivo
Description: […] Each dose of each compound consisted of one group of 3 mice. Monitoring of the mice was done twice a day for the duration of the experiment. […] The MTD (mg/kg) is the highest dose that results in no lethality/tissue abnormality.
• 1. […] The compounds are dissolved in the appropriate concentration of ethanol in distilled water and administered in a volume of 0.2 ml per mouse. • 2. Observation of mice: Mice will be observed 4 and 6 hours post administration, then twice daily for one week. Survival and body weight of mice will be closely monitored throughout the study. • 3. […] Critical organs will be aseptically removed and observed; tissues from the liver, heart, and kidneys are extracted and placed into 10% formalin solution. These fixed tissues are sectioned and examined for abnormalities resulting from drug toxicity.

[3] = PK, tissue distribution, excretion and metabolism of compound 109 in mice; assay type: in vivo; design: Amount cumulatively excreted, Feces / Amount cumulatively excreted, Urine: unit not given here; settings: for half-life: read-out: T1/2 el (converted)
Description: Initially, analytical methods for determination of the compounds had been developed that allowed to carry out all the PK experiments, sec FIG. 29. Here is a brief description of the experiment: (1) plasma spiked with tested compounds and 10 uL of Terfenadine or plasma samples (200 uL) added; (2) ACN (2 mL) added to precipitate protein and spin at 2,500 rpm; (3) evaporate supernatant to dryness; (4) add 200 uL of the diluting solvent: methanol (with 0.1% of trifluoroacetic acid): ammonium acetate (80/20); (5) vortex, spin, and use supernatant; (6) run LC/MS/MS on Sciex API 3000.
Conjugated metabolites are products of the typical metabolic pathway N-glucoronidation formed by reaction with glucuronic acid (D. A. Williams and T. L. Lemke in Foye's Principals of Medicinal Chemistry, 5th Ed., p.202).

[4] = target: T1, melanocortin MC4 receptor (Homo sapiens, UniProt P32245); assay: CEREP receptor binding, MC4; settings: tested at 10 μM; read-out: inhibition of control specific binding
T1 construct: CEREP (contract testing)
T1 sequence (P32245 whole entry): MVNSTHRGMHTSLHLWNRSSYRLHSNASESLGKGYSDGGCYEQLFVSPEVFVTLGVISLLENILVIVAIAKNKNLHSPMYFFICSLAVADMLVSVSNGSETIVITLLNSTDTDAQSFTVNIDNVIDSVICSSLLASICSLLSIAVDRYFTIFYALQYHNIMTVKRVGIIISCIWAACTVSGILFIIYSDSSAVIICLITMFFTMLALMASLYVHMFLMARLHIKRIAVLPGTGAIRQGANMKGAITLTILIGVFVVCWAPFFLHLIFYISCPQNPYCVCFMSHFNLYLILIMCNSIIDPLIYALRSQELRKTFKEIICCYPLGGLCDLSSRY
Excerpt: In vitro testing for safety pharmacology and early ADMET (Absorption, Distribution, Metabolism, Excretion, Toxicity) studies of compound 109 were contracted out to CEREP (15318 NE 95th Street, Redmond, Wash., 98052, USA www.cerep.com) under a service agreement and included evaluation of inhibitory binding to a panel of 27 standard receptors and three transporters (See FIG. 60 (Table 31) and FIG. 61 (Table 32)) which included: adenosine receptors (A1 and A2A), adrenergic receptors (alpha 1, alpha 2, beta 1), angiotensin II receptor (AT1), benzodiazapene receptor (BZD), bradykinin receptor (B2), cholecystokinin receptor (CCK1), dopamine receptors (D1, D2S), endothelin receptor (ETA), GABA receptor (GABA), glutamate receptor (NMDA), histamine receptor (H1 central), melanocortin receptor (MC4), muscarinic receptor (M, non-selective), neurokinin receptor (NK1), neuropeptide Y receptor (Y), nicotinic receptor (neuronal, alpha-BGTX-insensitive), opiate receptor (non-selective opiate), orphanin receptor (ORL1), phencyclidine receptor (PCP), serotonin receptor (5-HT), sigma receptor (sigma non-selective), steroid receptor (glucocorticoid receptor, GR), and NE, DA, and 5-HT transporters.
The specific ligand binding to the receptors is defined as the difference between the total binding and the nonspecific binding determined in the presence of an excess of unlabelled ligand.

## CC(C)=CCC/C(C)=C/CNCCNC1C2CC3CC(C2)CC1C3 (centres unmarked) [Compound 109, N-Geranyl-N′-(2-adamanthyl)ethane-1,2-diamine]
[1]
  MIC: 1.953 µM and 1.95 µM
[1]; Mycobacterium tuberculosis, H37RV, Table 10, from uM and MW, read-out: MIC
  MIC: 0.879 µg/mL
[1]; Mycobacterium tuberculosis, H37RV, Table 10, read-out: MIC
  MIC: 1.95 µM
[1]; Mycobacterium tuberculosis, H37RV, Table 15, read-out: MIC
  MIC: 1.56 µM
[1]; Mycobacterium tuberculosis, H37RV, previously determined, read-out: MIC by micro-broth dilution
  MIC: 0.2 µM and 0.11 µg/mL
[1]; Mycobacterium tuberculosis, H37RV, read-out: MIC
  MIC: 1.95 µM
[2]; 109 as HCl salt at 800 mg/kg, day 1
  Mice: 3
[2]; 109 as HCl salt at 800 mg/kg, day 2
  Mice: 2/1
[2]; 109 as HCl salt at 800 mg/kg, day 3
  Mice: 1/1
[2]; 109 as HCl salt at 800 mg/kg, day 4
  Mice: 1
[2]; 109 as HCl salt at 800 mg/kg, day 5
  Mice: 1
[2]; 109 as HCl salt at 800 mg/kg, day 6
  Mice: 1
[2]; 109 as HCl salt at 800 mg/kg, day 7
  Mice: 1
[2]; 109 as HCl salt at 800 mg/kg, 800 mg/kg
  Day of death: 2 and 3
[2]; 109 as TFA salt at 800 mg/kg, day 1
  Mice: 1
[2]; 109 as TFA salt at 800 mg/kg, day 2
  Mice: 1
[2]; 109 as TFA salt at 800 mg/kg, day 3
  Mice: 1
[2]; 109 as TFA salt at 800 mg/kg, day 4
  Mice: 1
[2]; 109 as TFA salt at 800 mg/kg, day 5
  Mice: 1
[2]; 109 as TFA salt at 800 mg/kg, day 6
  Mice: 1
[2]; 109 as TFA salt at 800 mg/kg, day 7
  Mice: 1
[2]; 109 at 100 mg/kg, day 1
  Mice: 3
[2]; 109 at 100 mg/kg, day 2
  Mice: 3
[2]; 109 at 100 mg/kg, day 3
  Mice: 3
[2]; 109 at 100 mg/kg, day 4
  Mice: 3
[2]; 109 at 100 mg/kg, day 6
  Mice: 3
[2]; 109 at 100 mg/kg, day 7
  Mice: 3
[2]; 109 at 300 mg/kg, day 1
  Mice: 3
[2]; 109 at 300 mg/kg, day 2
  Mice: 3
[2]; 109 at 300 mg/kg, day 3
  Mice: 3
[2]; 109 at 300 mg/kg, day 4
  Mice: 3
[2]; 109 at 300 mg/kg, day 6
  Mice: 3
[2]; 109 at 300 mg/kg, day 7
  Mice: 3
[2]; 109 at 600 mg/kg, day 1
  Mice: 3
[2]; 109 at 600 mg/kg, day 2
  Mice: 3
[2]; 109 at 600 mg/kg, day 3
  Mice: 3
[2]; 109 at 600 mg/kg, day 4
  Mice: 3
[2]; 109 at 600 mg/kg, day 6
  Mice: 3
[2]; 109 at 600 mg/kg, day 7
  Mice: 3
[2]; 109 at 1000 mg/kg, day 1
  Mice: 3
[2]; 109 at 1000 mg/kg, day 2
  Mice: 2
[2]; 109 at 1000 mg/kg, day 3
  Mice: 2
[2]; 109 at 1000 mg/kg, day 4
  Mice: 1
[2]; 109 at 1000 mg/kg, day 6
  Mice: 0
[2]; female, C57BL/6, mouse, in vivo, po, one-time dose by gavage
  MTD at 1 week: 600 mg/kg
[2]; mice surviving one week
  changes in organs: No visible changes in organs
[2]; one-time dose, two of 3 mice died within 3 days
  fatal dose: 800 mg/kg
[3]; 3 mg/kg i.v., 0-4 h
  Amount cumulatively excreted, Feces: <0.01
[3]; 3 mg/kg i.v., 0-4 h, unit not given
  Amount cumulatively excreted, Urine: <0.01
[3]; 3 mg/kg i.v., 4-8 h
  Amount cumulatively excreted, Feces: 0.01
  Amount cumulatively excreted, Urine: <0.01
[3]; 3 mg/kg i.v., 8-24 h
  Amount cumulatively excreted, Feces: 0.04
  Amount cumulatively excreted, Urine: 0.03
[3]; 3 mg/kg i.v., 24-32 h
  Amount cumulatively excreted, Feces: <0.01
  Amount cumulatively excreted, Urine: 0.01
[3]; 3 mg/kg i.v., Total 0-32 h
  Amount cumulatively excreted, Feces: 0.06
  Amount cumulatively excreted, Urine: 0.04
[3]; 25 mg/kg p.o., 0-4 h
  Amount cumulatively excreted, Feces: 0.48
[3]; 25 mg/kg p.o., 4-8 h
  Amount cumulatively excreted, Feces: 0.31
[3]; 25 mg/kg p.o., 8-24 h
  Amount cumulatively excreted, Feces: 1.12
[3]; 25 mg/kg p.o., 24-32 h
  Amount cumulatively excreted, Feces: 0.08
[3]; 25 mg/kg p.o., Total 0-32 h
  Amount cumulatively excreted, Feces: 2.0
[3]; i.v. 3 mg/kg, p.o. 25 mg/kg
  tissue distribution: primarily distributes into the lungs and spleen
[3]; iv or p.o.
  plasma level relative to MBC: reaches and exceeds its Minimum Bactericidal Concentration
[3]; mouse urine
  metabolites (breakdown products) in urine: did not provide evidence of breakdown products
[3]; mouse urine, first 24 hr
  conjugated (N-glucoronidation) metabolites in urine: No glucoronidation metabolites; also recorded: no evidence for the formation of conjugated metabolites
[3]; mouse, in vivo
  total amount after excretion (urine and feces): ≤ 3 % of the delivered dose
  total clearance: less than hepatic blood flow
[3]; mouse, in vivo, iv, 3 mg/kg
  AUC: 792 ng·h/mL
  Cmax: 1040 ng/mL
  Tmax: 0 h
  clearance: 63.1 mL/min/kg
  half-life: 3.5 h
[3]; mouse, in vivo, iv, 3 mg/kg, read-out: Vdss
  Vd: 11.8 L/kg
[3]; mouse, in vivo, po, 25 mg/kg
  AUC: 254 ng·h/mL
  Cmax: 135 ng/mL
  Tmax: 0.31 h
  bioavailability: 3.8%
  half-life: 5.2 h
[4]
  inhibition at 10 µM: 90%
